# Source: patent publication US8822216B2, “DNA regulatory element for the expression of transgenes in neurons of a subject and uses thereof” (priority 1997, dated 2014)
# Experiments:
# [1] = test system: Schaffer collateral LTP in CA1 of hippocampal slices; test: 10-Hz LTP in CA1 of hippocampal slices (field EPSP slope); assay type: cell-based, mouse; settings: doxycycline 1 mg/ml drinking water 2 to 3 weeks, 1 ng/ml in perfusate
# [2] = test system: wild-type mice; test: Effect of doxycycline itself on memory of wild-type mice; assay type: in vivo, mouse
# [3] = test system: Schaffer collateral-CA1 pyramidal cell synapse; test: LTP induced by two 100 Hz trains in hippocampal slices; assay type: cell-based, mouse; settings: for LTP induced by two 100 Hz trains in mutant mice after pretreatment: Tet-CN279 mutant slices, 750 nM calyculin A for 30 minutes
# Source text: In an attempt to isolate, in still another way, the novel intermediate phase in which PKA acts to suppress a phosphatase cascade we varied the number of tetanic trains of stimulation. One of the characteristics that distinguishes E-LTP from L-LTP is that weak stimuli such as a single 100 Hz train elicit E-LTP but not L-LTP. In contrast, to reliably induce L-LTP, 3-4 repeated 100 Hz trains are required. We therefore sought to determine if an intermediate phase of LTP could also be distinguished from these phases based on the strength of stimulus required. We elicited LTP with two 100 Hz trains spaced by 20 seconds. This protocol elicited LTP that was more robust than that elicited by one 100 Hz train, but less maintained than that elicited by four trains (FIG. 14C). In contrast to LTP elicited by a single 100 Hz train which is not affected by inhibitors of PKA (Huang et al., 1996), LTP elicited by two trains was partially sensitive to the PKA inhibitor KT5720 (no drug: […]; 1 μM KT5720: 153±5% of baseline at 1 hr, 5 slices, 4 mice; […]; FIG. 14D). […] These two types of experiments reveal a novel intermediate phase of LTP (I-LTP) exists that requires 1) a stronger stimulus than E-LTP, and 2) the activation of PKA.
# Transverse hippocampal slices were prepared as previously described (Huang and Kandel, 1994). Mice of either sex, aged 7-18 weeks were used. In all appropriate cases, the experimenter was blinded to animal genotype. Hippocampi was rapidly unilaterally dissected out on ice, and […] slices were cut on a McIlwain tissue chopper and placed in oxygenated ACSF (NaCl, 124 mM, KCl, 4.4 mM; CaCl2, 2.5 mM; MgSO4, 1.3 mM; NaH2PO4, 1 mM; glucose, 10 mM; and NaHCO3 26 mM). The slices were then transferred to an interface chamber where they were subfused with oxygenated ACSF (1-2 ml/min) and allowed to equilibrate for 60-90 min at 28° C.
# For extracellular recordings, ACSF-filled glass electrodes (1-3 MΩ) were positioned in the stratum radiatum of area CA1. A bipolar nichrome stimulating electrode was also placed in stratum radiatum for stimulation of Schaffer collateral afferents (0.05 ms duration). Unless otherwise mentioned, test stimuli were applied at a frequency of 1 per minute (0.017 Hz), and at a stimulus intensity that elicits a fEPSP slope that was 35% of the maximum. Experiments in which a significant change in the fiber volley amplitude occurred, were discarded. Drugs were applied through the perfusion medium. DL-AP5, calyculin A, KT5720 and R(+)-6-Bromo-[…]-3-allyl-1-phenyl-2,3,4-tetrahydro-1H-3-benzazepine (6-Br-APB) were purchased from Research Biochemicals International, Natick, Mass. DL-AP5 was dissolved directly into ACSF prior to use. Calyculin A, KT5720 and 6-Br-APB were dissolved as 100× stocks in DMSO and diluted into ACSF just before use. Sp-cAMPS (Biolog, La Jolla, Calif.) was dissolved directly in ACSF.
# [4] = test system: CaMKII; test: CaMKII enzyme activity in striatum of B21 double transgenic mice on doxycycline; assay type: in vivo, mouse
# Description: In double transgenic mice, a high level of expression of the CaMKII-Asp mRNA was obtained (FIGS. 5B and 7A-D). To determine the effect of this expression on enzyme activity. CaMKII activity was measured in the striatum of the B21 line of mice (Table 1).
# Brains were removed and the striatum was dissected and immediately homogenized in 20 mM tris-HCl (pH 7.5), 0.5 mM EGTA, 0.5 mM EDTA, 2 mM leupeptin, 0.4 mM dithiothreitol, 0.1 mM phenylmethysulfonyl flouride, 0.4 mM molybdate, and 10 mM sodium pyrophosphate. CaMKII enzyme activity was determined as described (Mayford et al., 1995). B21+Dox animals received doxycycline (1 mg/ml) plus 5% sucrose in the drinking water for 3 to 5 weeks. B21+Dox withdrawal animals received doxycycline (1 mg/ml) for 3 to 5 weeks and were then switched to normal water for 6 weeks. The number of mice is given in parentheses.
# [5] = test system: calcineurin; test: Phosphatase assay in hippocampal extracts; assay type: biochemical, mouse
# Description: Phosphatase assays were performed according to Hubbard and Klee (1991). Briefly, mice were injected with 5 ml/kg of pentobarbital and decapitated. Hippocampi were dissected out, homogenized in 2 mM EDTA (pH 8), 250 mM sucrose, 0.1% Bmercaptoethanol and centrifuged. Supernatants were diluted in 40 mM Tris-HCl (pH 8), 0.1M NaCl, 0.04 mg/ml bovine serum albumin, 1 mM DTT, […] (Buffer 1) and incubated at 30° C. for 1 min in Buffer 1 containing 1 mM of the peptide [γ^32P]-RII subunit of cyclic AMP-dependent protein kinase (PKA) and either 0.1 mM calmodulin (Sigma) and 0.66 mM Ca^2+ or 0.33 mM EGTA (pH 7.5). The peptide ^97[Ala]-RII (Peninsula Labs) was labeled with 0.3 roM [γ^32P]ATP (NEN) using 4 mg catalytic subunit of PKA (Fluka). The reaction was stopped with 5% TCA in 0.1 M KH2P04 and the enzyme activity was calculated as previously described (Klee et al., 1983) and is expressed in nmol Pi release/min/mg protein. The protein concentration was determined using the bicinchroninic acid protein assay kit (Sigma). All samples were performed in triplicate.
# Phosphatase assays were performed as described in Winder et al., 1997. Briefly, mice were injected with 5 ml/kg of pentobarbital and decapitated. Hippocampi were dissected out, homogenized in 2 mM EDTA (pH 8), 250 mM sucrose, 0.1 k β-mercaptoethanol. Supernatants were incubated at 30° C. for 1 min in presence of the […] [Ala97]-RII peptide and either 0.1 mM calmodulin and 0.66 mM Ca^2+ or 0.33 mM EGTA. The reaction was stopped and the enzyme activity calculated previously as described (Klee et al., 1983; 1987). The activity was expressed in nmol Pi released/min/mg protein. The protein concentration was determined using the bicinchroninic acid protein assay kit (Sigma). All samples were performed in triplicate.
# [6] = test system: Schaffer collateral-CA1 synapse; test: Chemically induced slow-onset potentiation (L-LTP) in hippocampal slices; assay type: cell-based, mouse
# Description: FIG. 13C) and FIG. 13D): Drug was added at the time indicated in both panels at a concentration of 100 µM. Each point in the time courses represents the mean fEPSP slope±SEM normalized to the average of the predrug fEPSP slope. Insets show representative fEPSP traces just before drug addition and 3 hours after.
# Is this reduction due to a direct effect on downstream components of L-LTP, or is it due to a failure to fully initiate L-LTP? To begin to explore this question we examined L-LTP evoked by pharmacological activation of the […], which bypasses tetanic stimulation in area CA1. In addition to being evoked through multiple high frequency tetani to the Schaffer collaterals, L-LTP in area CA1 can be induced chemically through either application of D1/D5 dopamine receptor agonists or direct activators of adenylyl cyclase and PKA. In wild-type slices, application of agonists of D1/D5 dopamine receptors or the PKA agonist Sp-cAMPS, result in a slow-onset potentiation of synaptic transmission that is sensitive to protein and RNA-synthesis inhibitors, and mutually occlusive with L-LTP elicited by multiple high frequency trains (Huang and Kandel, 1994; Huang et al., 1994; Bolshakov et al., 1997). If overexpression of calcineurin directly affects the machinery necessary to produce the late phase, pharmacologically-induced L-LTP, that bypasses E- and I-LTP, would be impaired in CN98-mutant mice, as is the case with the late phase deficit in tPA-knockout mice (Huang et al., 1996a).
# We tested the ability of both the D1/D5 receptor agonist 6-Br-APB (100 μM) and the PKA activator Sp-cAMPs (100 μM) to elicit slow-onset potentiation at the Schaffer collateral-CA1 synapse in CN98 mice.
# For extracellular recordings, ACSF-filled glass electrodes (1-3 MΩ) were positioned in the stratum radiatum of area CA1. A bipolar nichrome stimulating electrode was also placed in stratum radiatum for stimulation of Schaffer collateral afferents (0.05 ms duration). […]
# [7] = test system: Schaffer collateral-CA1 pyramidal cell synapse; assay type: cell-based, mouse; settings: wild-type slices
# [8] = test system: NMDA receptors; test: NMDA-mediated synaptic field potentials in hippocampal slices (DNQX, reduced Mg2+); assay type: cell-based, mouse
# [9] = Dox withdrawal: doxycycline 1 mg/ml 3 to 5 weeks, then normal water 6 weeks
# [10] = doxycycline 1 mg/ml plus 5% sucrose in drinking water 3 to 5 weeks
smiles,measurement,setting,value
C[C@H]1c2cccc(O)c2C(=O)C2=C(O)[C@]3(O)C(=O)C(C(N)=O)=C(O)[C@@H](N(C)C)[C@@H]3[C@@H](O)[C@@H]21 [doxycycline],field EPSP slope as percentage of pre-tetanus baseline after 10-Hz tetanus,[1]; B13 double transgenic mice,132±10%
same,field EPSP slope as percentage of pre-tetanus baseline after 10-Hz tetanus,[1]; wild-type mice,122±6%
same,memory,[2]; doxycycline treatment in the adult animal,did not affect memory
same,adult spatial memory and memory for fear conditioning,"[2]; wild-type mice, doxycycline 1 mg/ml during development",impaired
same,"fEPSP slope, % of baseline at 1 hr after two trains","[3]; Tet-CN279 on doxycycline (mutant sentence), 1 mg/ml in water supply, 1 ng/ml in ACSF",184±18%
same,"fEPSP slope, % of baseline at 1 hr after two trains",[3]; printed 'Tet-CN279 mutant mice on doxycycline' in the sentence on wild-type mice on or off doxycycline,191±18%
same,CaMKII Activity Ca^2+-independent (%),[4]; [9],5.70 ± 0.43%
same,CaMKII Activity With Ca^2+,[4]; [9],14.2 ± 0.7 pmol/min/µg
same,CaMKII Activity Without Ca^2+,[4]; [9],0.80 ± 0.03(3) pmol min^−1 μg^−1
same,CaMKII Activity Ca^2+-independent (%),[4]; [10],1.22 ± 0.03%
same,CaMKII Activity With Ca^2+,[4]; [10],12.9 ± 1.5 pmol/min/µg
same,CaMKII Activity Without Ca^2+,[4]; [10],0.16 ± 0.04(5) pmol min^−1 μg^−1
COC[C@@H]([C@H](O)[C@H](O)C(=O)NCC[C@H](C)c1nc(/C=C/C[C@@H]2O[C@]3(C[C@@H](O)[C@@H]2C)O[C@H]([C@H](C[C@H](O)[C@H](C)[C@H](O)[C@H](C)/C=C(C)/C(C)=C/C=C/C(C)=C\C#N)OC)[C@H](OP(=O)(O)O)C3(C)C)co1)N(C)C [calyculin A],LTP induced by two 100 Hz trains in mutant mice after pretreatment,[3],indistinguishable from that seen in wild-type
same,LTP induced by two 100 Hz trains in mutant mice after pretreatment,[3]; listed as Calyculin A,rescues the deficit
O=C(O)CN(CCOCCOCCN(CC(=O)O)CC(=O)O)CC(=O)O [EGTA],phosphatase enzyme activity in hippocampal extracts,[5]; CN98 mutant + EGTA,0.32±0.14 nmol Pi/min/mg
same,phosphatase activity,[5]; CN98 mutant and wild-type hippocampal extracts in the presence of EGTA,virtually abolished
same,phosphatase enzyme activity in hippocampal extracts,[5]; CN98 wild-type + EGTA,0.427±0.16 nmol Pi/min/mg
same,phosphatase enzyme activity in hippocampal extracts,[5]; mutant (Tet-CN279+Tet-CN273) + EGTA,0.287±0.17 nmol Pi/min/mg
same,phosphatase enzyme activity in hippocampal extracts,[5]; wild-type (Tet-CN279+Tet-CN273) + EGTA,0.432 ± 0.11 nmol Pi/min/mg
"C=CCN1CCc2c(cc(O)c(O)c2Br)[C@@H](c2ccccc2)C1 [6-Br-APB, R(+)-6-Bromo-7,0-dihydroxy-3-allyl-1-phenyl-2,3,4-tetrahydro-1H-3-benzazepine]","fEPSP slope, % of baseline at 3 hr after drug application","[6]; CN98 mutant, 6-Br-APB 100 μM",181±41%
CCCCCCOC(=O)[C@]1(O)C[C@@H]2O[C@@]1(C)n1c3ccccc3c3c4c(c5c6ccccc6n2c5c31)C(=O)NC4 [KT5720],"fEPSP slope, % of baseline at 1 hr after two 100 Hz trains","[3]; wild-type slices, 1 μM KT5720",153±5%
same,"decay of LTP induced by four 100 Hz trains, compared with anisomycin","[7]; KT5720 1 μM, 20 minute pretreatment, anisomycin 30 μM one hour prior to tetanus",much more rapid decay
Nc1ncnc2c1ncn2[C@@H]1O[C@@H]2COP(O)(=S)O[C@H]2[C@H]1O (stereo partly drawn) [Sp-cAMPS],"fEPSP slope, % of baseline at 3 hr after drug application","[6]; CN98 wild-type, printed as Sp-cAMPS application, 100 μM",204±40%
same,"fEPSP slope, % of baseline at 3 hr after drug application","[6]; wild-type, Sp-cAMPS 100 μM",124±13%
"NC(CCCP(=O)(O)O)C(=O)O (racemic) [DL-A95, DL-AP5]",NMDA-mediated field potentials in 10 μM DNQX and reduced Mg2+ (50 μM),[8],completely antagonized
COc1ccc(C[C@H]2NC[C@H](O)[C@H]2OC(C)=O)cc1 [anisomycin],sensitivity of LTP elicited by two trains to preincubation with the drug,"[3]; wild-type slices, anisomycin 30 μM",completely insensitive
same,LTP induced by four trains,[7]; anisomycin 30 μM,reduced
